Experimental data as given in patent publication US11926598B1, “1-(4-nitrobenzylideneamino)-5-phenylimidazolidine-2,4-dione as an antimicrobial compound” (KING FAISAL UNIVERSITY, priority 2023, dated 2024).

Legend:
Type in all cases: cell-based
Aspergillus flavus = test: Agar plate disc-diffusion, antifungal inhibition zone
Description: (§1) The agar plate disc-diffusion method was applied. […] The discs were then placed onto the surface of agar plates (nutrient agar for bacteria and Sabouraud's dextrose agar for fungi) seeded with the test organism. Each plate contained 15 mL of the agar medium, previously seeded with 0.2 mL of the broth culture of each organism pregrown for 18 hours. The plates were incubated at 37° C. for 48 hours, and 72 hours for fungi. The inhibition zones was measured in millimeter. Discs impregnated with DMSO were used as a control, and its inhibition zone was subtracted from the tested compound actual inhibition zone.
(§2) The results of the antimicrobial testing can be observed in Tables 1 and 2, below, with ciprofloxacin serving as a reference.

[1] = tested on: Chrysosporium keratinophilum; test: as above
Description: as §1, §2

Escherichia coli = test: Agar plate disc-diffusion, antibacterial inhibition zone; conditions: Escherichia coli (Gram negative)
Description: as §1, §2

Staphylococcus aureus = test: as above; conditions: Staphylococcus aureus (Gram positive)
Description: as §1, §2

Bacillus Cereus = test: as above; conditions: Bacillus Cereus (Gram positive)
Description: as §1, §2

Pseudomonas aeruginosa = test: as above; conditions: Pseudomonas aeruginosa (Gram negative)
Description: as §1, §2

[2] = A = concentration of comp. = 10,000 μL
[3] = B = concentration of comp. = 30.000 μL
[4] = C = concentration of comp. = 50,000 μL

| SMILES | inhibition zone (Aspergillus flavus; [2]) [millimeter] | inhibition zone (Aspergillus flavus; [3]) [millimeter] | inhibition zone (Aspergillus flavus; [4]) [millimeter] | inhibition zone [1, 2] [millimeter] | inhibition zone [1, 3] [millimeter] | inhibition zone [1, 4] [millimeter] | inhibition zone (Escherichia coli; [2]) [millimeter] | inhibition zone (Escherichia coli; [3]) [millimeter] | inhibition zone (Escherichia coli; [4]) [millimeter] | inhibition zone (Staphylococcus aureus; [2]) [millimeter] | inhibition zone (Staphylococcus aureus; [3]) [millimeter] | inhibition zone (Staphylococcus aureus; [4]) [millimeter] | inhibition zone (Bacillus Cereus; [2]) [millimeter] | inhibition zone (Bacillus Cereus; [3]) [millimeter] | inhibition zone (Bacillus Cereus; [4]) [millimeter] | inhibition zone (Pseudomonas aeruginosa; [2]) [millimeter] | inhibition zone (Pseudomonas aeruginosa; [3]) [millimeter] | inhibition zone (Pseudomonas aeruginosa; [4]) [millimeter] |
| --- | --- | --- | --- | --- | --- | --- | --- | --- | --- | --- | --- | --- | --- | --- | --- | --- | --- | --- |
| O=C(O)c1cn(C2CC2)c2cc(N3CCNCC3)c(F)cc2c1=O [Cip., ciprofloxacin] | 29 | 30 | 42 | 29 | 30 | 53 | 30 | 39 | 60 | 43 | 44 | 53 | 29 | 30 | 42 | 29 | 30 | 53 |
| O=C1NC(=O)N(N=Cc2ccc([N+](=O)[O-])cc2)C1c1ccccc1 (stereo not drawn) [Compound 4, 1-(4-nitrobenzylideneamino)-5-phenylimidazolidine-2,4-dione] | 19 | 24 | 35 | 26 | 28 | 50 | 30 | 35 | 51 | 19 | 24 | 30 | 25 | 27 | 37 | 25 | 27 | 40 |
